The term IC50 denotes the point on the concentration scale where inhibition reaches its midpoint.

Drawing on US11242361B2 (Proteostasis Therapeutics, Inc., priority 2013, dated 2022), this text covers IC50 for 41 molecules.

Structures are written as SMILES. Some results are limits rather than exact numbers.

Chain of USP14 (P54578 whole entry, looked up): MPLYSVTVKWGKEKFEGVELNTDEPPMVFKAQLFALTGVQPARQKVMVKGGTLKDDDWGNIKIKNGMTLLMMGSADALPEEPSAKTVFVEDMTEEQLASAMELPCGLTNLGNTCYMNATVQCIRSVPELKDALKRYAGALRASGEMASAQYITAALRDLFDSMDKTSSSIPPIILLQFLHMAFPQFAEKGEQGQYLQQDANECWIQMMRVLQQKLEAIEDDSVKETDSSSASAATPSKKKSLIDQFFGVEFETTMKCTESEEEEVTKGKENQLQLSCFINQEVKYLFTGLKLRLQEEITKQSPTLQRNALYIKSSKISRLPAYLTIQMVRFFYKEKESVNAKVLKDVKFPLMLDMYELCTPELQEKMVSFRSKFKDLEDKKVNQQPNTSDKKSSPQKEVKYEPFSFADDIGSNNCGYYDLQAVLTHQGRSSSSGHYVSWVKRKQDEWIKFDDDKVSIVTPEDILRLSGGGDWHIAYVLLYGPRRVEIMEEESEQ

This test addresses USP14 (Homo sapiens (Human), UniProt P54578). Put plainly: USP14 Inhibition Assay. Particulars: average value from a minimum of two experimental determinations, read-out: IC50 Category. It is filed as biochemical. The protocol:
Example 17: USP14 Inhibition Assay
“I” in the Table below designates an IC50 of >5 μM, “II” in the Table below designates and IC50 between 0.5 and 5 μM, and “III” designates an IC50<0.5 μM. The IC50 values in the Table below represent the average value from a minimum of two experimental determinations.
As for `Cc1c(C(=O)CN2CC[C@@H](O)[C@@H](O)C2)c2ncc(Br)cc2n1-c1ccc(C#N)cc1` [Compound 355], the IC50 was less than 0.5 µM.
Consider `Cc1c(C(=O)CN2CC[C@H](O)[C@H](O)C2)c2ncc(Br)cc2n1-c1ccc(C#N)cc1` [Compound 356], for which the IC50 was less than 0.5 µM.
Under `Cc1c(C(=O)CN2CCC(O)CC2)c2ncc(CCS(N)(=O)=O)cc2n1-c1ccc(Cl)cc1` [Compound 357, 2-(1-(4-Chlorophenyl)-3-(2-(4-hydroxypiperidin-1-yl)acetyl)-2-methyl-1H-pyrrolo[3,2-b]pyridin-6-yl)ethane-1-sulfonamide] stands less than 0.5 µM.
Under `Cc1c(C(=O)CN2CC3(CCC3)C2)c2ncc(Br)cc2n1-c1ccc(C#N)cc1` [Compound 359] stands more than 5 µM; under `Cc1c(C(=O)CN2CCCCC2)c2ncc(CN3CCCC3)cc2n1-c1ccc(C#N)cc1` [Compound 360, 4-(2-Methyl-3-(2-(piperidin-1-yl)acetyl)-6-(pyrrolidin-1-ylmethyl)-1H-pyrrolo[3,2-b]pyridin-1-yl)benzonitrile], less than 0.5 µM; under `C#CCCCNC(=O)CCc1cnc2c(C(=O)CN3CCC(O)CC3)c(C)n(-c3ccc(C#N)cc3)c2c1` [Compound 361], less than 0.5 µM.
To `Cc1c(C(=O)CN2CCC(O)CC2)c2ncc(CCC(=O)NCCCC#N)cc2n1-c1ccc(C#N)cc1` [Compound 362] belongs less than 0.5 µM; to `COCCOc1cnc2c(C(=O)CN3CCC(OC)CC3)c(C)n(-c3ccc(Cl)cc3)c2c1` [Compound 363], less than 0.5 µM.
With `COCCOc1cnc2c(C(=O)CN3CCCCC3)c(C)n(-c3ccc(Cl)cc3)c2c1` [Compound 364], the IC50 is less than 0.5 µM.
Under `CCOC(=O)CC1CCN(CC(=O)c2c(C)n(-c3ccc(C#N)cc3)c3cc(Br)cnc23)CC1` [Compound 365] stands 0.5 to 5 µM; under `CCOC(=O)CC1CCCN(CC(=O)c2c(C)n(-c3ccc(C#N)cc3)c3cc(Br)cnc23)C1` (centres unmarked) [Compound 366], 0.5 to 5 µM.
To `Cc1c(C(=O)CN2CCC(N)CC2)c2ncc(Br)cc2n1-c1ccc(C#N)cc1` [Compound 367] belongs 0.5 to 5 µM; to `CCOC(=O)CNCC1CCN(CC(=O)c2c(C)n(-c3ccc(C#N)cc3)c3cc(Br)cnc23)CC1` [Compound 368], 0.5 to 5 µM; to `COc1cnc2c(C(=O)CN3CCC(CN)CC3)c(C)n(-c3ccc(C#N)cc3)c2c1` [Compound 369], less than 0.5 µM.
Turning to `COc1cnc2c(C(=O)CN3CCC(CN(C)C)CC3)c(C)n(-c3ccc(C#N)cc3)c2c1` [Compound 370], the IC50 is less than 0.5 µM.
To `Cc1c(C(=O)CN2CCC(CC(=O)O)CC2)c2ncc(Br)cc2n1-c1ccc(Cl)cc1` [Compound 371] belongs more than 5 µM.
To `N#Cc1ccc(-n2c(C(F)(F)F)c(C(=O)CN3CCCCC3)c3ncccc32)cc1` [Compound 372] belongs more than 5 µM; to `Cc1c(C(=O)CN2[C@H](C)CCC[C@H]2C)c2ncc(Br)cc2n1-c1ccc(C#N)cc1` [Compound 373], 0.5 to 5 µM; to `Cc1c(C(=O)CN2[C@@H](C)CCC[C@@H]2C)c2ncc(Br)cc2n1-c1ccc(C#N)cc1` [Compound 374], 0.5 to 5 µM.
Under `Cc1c(C(=O)CN2CCCCC2)c2ncc(CC(=O)NC3CC3)cc2n1-c1ccc(C#N)cc1` [Compound 381, 2-(1-(4-Cyanophenyl)-2-methyl-3-(2-(piperidin-1-yl)acetyl)-1H-pyrrolo[3,2-b]pyridin-6-yl)-N-cyclopropylacetamide] stands less than 0.5 µM; under `CCN(C)C(=O)Cc1cnc2c(C(=O)CN3CCCCC3)c(C)n(-c3ccc(C#N)cc3)c2c1` [Compound 382, 2-(1-(4-Cyanophenyl)-2-methyl-3-(2-(piperidin-1-yl)acetyl)-1H-pyrrolo[3,2-b]pyridin-6-yl)-N-ethyl-N-methylacetamide], less than 0.5 µM.
Regarding `CCNC(=O)Cc1cnc2c(C(=O)CN3CCCCC3)c(C)n(-c3ccc(C#N)cc3)c2c1` [Compound 383, 2-(1-(4-Cyanophenyl)-2-methyl-3-(2-(piperidin-1-yl)acetyl)-1H-pyrrolo[3,2-b]pyridin-6-yl)-N-ethylacetamide], the IC50 is less than 0.5 µM.
As for `CCOC(=O)Cc1cnc2c(C(=O)CN3CCCCC3)c(C)n(-c3ccc(C#N)cc3)c2c1` [Compound 384, Ethyl 2-(1-(4-Cyanophenyl)-2-methyl-3-(2-(piperidin-1-yl)acetyl)-1H-pyrrolo[3,2-b]pyridin-6-yl)acetate], the 50% inhibitory concentration (IC50) is less than 0.5 µM.
To `Cc1c(C(=O)CN2CCCCC2)c2ncc(Cl)cc2n1-c1ccc(C#N)cc1` [Compound 385] belongs less than 0.5 µM; to `Cc1c(C(=O)CN2CCC(CNCC(=O)O)CC2)c2ncc(Br)cc2n1-c1ccc(Cl)cc1` [Compound 386], more than 5 µM; to `CCCC(=O)CCc1cnc2c(C(=O)CN3CCCCC3)c(C)n(-c3ccc(Cl)cc3)c2c1` [Compound 387], less than 0.5 µM.
Turning to `Cc1c(C(=O)CN2CCC(O)CC2)c2ncccc2n1-c1ccc(Cl)cc1` [Compound 388], the IC50 was less than 0.5 µM.
As to `Cc1c(C(=O)CN2CCC(O)CC2)c2ccccc2n1-c1ccc(F)cc1` [Compound 389], the IC50 is less than 0.5 µM.
As for `Cc1c(C(=O)CN2CCC(O)(C(F)(F)F)CC2)c2ccccc2n1-c1ccc(Cl)cc1` [Compound 390], the IC50 is more than 5 µM.
Under `Cc1c(C(=O)CN2CCC(O)CC2)c2ccccc2n1-c1ccc(F)c(F)c1` [Compound 391] stands 0.5 to 5 µM.
Under `Cc1c(C(=O)CN2CCC(O)CC2)c2ccccc2n1-c1ccc(Cl)nc1` [Compound 392] stands 0.5 to 5 µM; under `Cc1c(C(=O)CN2CCC(O)CC2)c2ccccc2n1-c1ccc(C#N)nc1` [Compound 393], 0.5 to 5 µM.
Under `Cc1c(C(=O)CN2CCC(O)CC2)c2ccc(F)cc2n1-c1ccc(Cl)cc1` [Compound 394] stands more than 5 µM.
For `Cc1c(C(=O)CN2CCC(O)CC2)c2ccccc2n1-c1cccnc1` [Compound 395], the IC50 is more than 5 µM.
As to `Cc1c(C(=O)CN2CCC(O)CC2)c2ccccc2n1-c1ccncc1` [Compound 396], the IC50 is more than 5 µM.
To `Cc1c(C(=O)CN2CCC(O)CC2)c2ccccc2n1-c1ccccn1` [Compound 397] belongs more than 5 µM; to `Cc1c(C(=O)CN2CCC(O)CC2)c2ccccc2n1-c1ccc(Cl)cn1` [Compound 398], 0.5 to 5 µM.
To `O=C(CN1CCCCC1)c1c(C2CC2)n(-c2ccc(Cl)cc2)c2ccccc12` [Compound 399] belongs more than 5 µM.
Turning to `Cc1c(C(=O)CN2CCC(O)CC2)c2ccccc2n1-c1ncc(Cl)cn1` [Compound 400], the IC50 was more than 5 µM.
Under `CCc1c(C(=O)CN2CCCCC2)c2ccccc2n1-c1ccc(Cl)cc1` [Compound 401] stands 0.5 to 5 µM; under `Cc1c(C(=O)CN2CCC(O)CC2)c2ccccc2n1-c1ncc(Cl)s1` [Compound 402], more than 5 µM.
